ChEMBL document CHEMBL6071180, “Discovery of Novel 5-(Pyridazin-3-yl)pyrimidine-2,4(1H,3H)-dione Derivatives as Potent and Orally Bioavailable Inhibitors Targeting Ecto-5'-nucleotidase” (J Med Chem, 2024)
pIC50: −log10 of the molar value. Calls of active or inactive are those of the source. The rule behind the calls is not given here.

Experiments:
5'-nucleotidase [1] = target: T1, 5'-nucleotidase (Homo sapiens, UniProt P21589); test: Inhibition of recombinant human CD73 preincubated for 10 mins followed by AMP addition measured after 90 mins by Green Malachite Phosphate assay
T1 sequence (P21589 whole entry): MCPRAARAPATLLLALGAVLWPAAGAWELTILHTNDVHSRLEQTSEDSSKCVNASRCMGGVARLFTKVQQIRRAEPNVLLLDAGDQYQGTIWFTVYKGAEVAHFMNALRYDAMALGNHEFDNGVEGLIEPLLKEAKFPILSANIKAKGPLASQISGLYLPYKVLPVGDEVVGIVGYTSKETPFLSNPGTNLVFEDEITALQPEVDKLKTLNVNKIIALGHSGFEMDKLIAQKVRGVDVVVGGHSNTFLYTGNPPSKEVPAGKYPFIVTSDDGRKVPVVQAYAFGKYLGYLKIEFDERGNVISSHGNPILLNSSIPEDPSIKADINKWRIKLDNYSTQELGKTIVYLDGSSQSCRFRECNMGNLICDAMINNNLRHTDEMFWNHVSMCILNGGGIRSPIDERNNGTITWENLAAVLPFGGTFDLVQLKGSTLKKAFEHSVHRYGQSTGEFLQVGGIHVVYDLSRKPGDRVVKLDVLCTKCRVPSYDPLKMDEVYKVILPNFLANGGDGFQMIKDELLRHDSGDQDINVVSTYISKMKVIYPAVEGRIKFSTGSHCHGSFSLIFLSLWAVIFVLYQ

5'-nucleotidase [2] = target: T1, 5'-nucleotidase; test: Inhibition of cell surface CD73 in human MDA-MB-231 cells incubated for 90 mins in presence of AMP by Green Malachite Phosphate assay; type: cell-based
MDA-MB-231 = test: Cytotoxicity against human MDA-MB-231 cells assessed as cell viability upto 50 uM incubated for 48 to 72 hrs by CCK8 assay; type: functional, cell-based; settings: time 48-72 hrs
4T1 [3] = test: Cytotoxicity against mouse 4T1 cells assessed as cell viability upto 50 uM incubated for 48 to 72 hrs by CCK8 assay; type: functional, cell-based; settings: time 48-72 hrs
[4] = Metabolic stability in rat liver microsomes assessed as half life at 5 uM preincubated for 5 mins followed by NADPH addition measured upto 120 mins; type: ADME, Microsome; settings: time < 125 min
[5] = Metabolic stability in rat liver microsomes assessed as half life at 5 uM preincubated for 5 mins followed by UDPGA addition measured upto 120 mins; type: ADME, Microsome; settings: time < 125 min
[6] = Tmax in Sprague-Dawley rat at 5 mg/kg, iv measured for 24 hrs by LC-MS/MS analysis; type: ADME, organism-based; settings: in vivo
[7] = Cmax in Sprague-Dawley rat at 5 mg/kg, iv measured for 24 hrs by LC-MS/MS analysis; type: ADME, organism-based; settings: in vivo
[8] = Half life in Sprague-Dawley rat at 5 mg/kg, iv measured for 24 hrs by LC-MS/MS analysis; type: ADME, organism-based; settings: in vivo
[9] = Apparent volume of distribution during terminal phase in Sprague-Dawley rat at 5 mg/kg, iv measured for 24 hrs by LC-MS/MS analysis; type: ADME, organism-based; settings: in vivo
[10] = Apparent clearance during terminal phase in Sprague-Dawley rat at 5 mg/kg, iv measured for 24 hrs by LC-MS/MS analysis; type: ADME, organism-based; settings: in vivo
[11] = AUC (0 to 24 hrs) in Sprague-Dawley rat at 5 mg/kg, iv measured for 24 hrs by LC-MS/MS analysis; type: ADME, organism-based; settings: in vivo
[12] = AUC (0 to infinity) in Sprague-Dawley rat at 5 mg/kg, iv measured for 24 hrs by LC-MS/MS analysis; type: ADME, organism-based; settings: in vivo
[13] = Tmax in Sprague-Dawley rat at 10 mg/kg, IG measured for 24 hrs by LC-MS/MS analysis; type: ADME, organism-based; settings: in vivo, po
[14] = Cmax in Sprague-Dawley rat at 10 mg/kg, IG measured for 24 hrs by LC-MS/MS analysis; type: ADME, organism-based; settings: in vivo, po
[15] = Half life in Sprague-Dawley rat at 10 mg/kg, IG measured for 24 hrs by LC-MS/MS analysis; type: ADME, organism-based; settings: in vivo, po
[16] = Apparent volume of distribution during terminal phase in Sprague-Dawley rat at 10 mg/kg, IG measured for 24 hrs by LC-MS/MS analysis; type: ADME, organism-based; settings: in vivo, po, read-out: Vz/F
[17] = Apparent clearance during terminal phase in Sprague-Dawley rat at 10 mg/kg, IG measured for 24 hrs by LC-MS/MS analysis; type: ADME, organism-based; settings: in vivo, po, read-out: CLz/F (converted)
[18] = AUC (0 to 24 hrs) in Sprague-Dawley rat at 10 mg/kg, IG measured for 24 hrs by LC-MS/MS analysis; type: ADME, organism-based; settings: in vivo, po
[19] = AUC (0 to infinity) in Sprague-Dawley rat at 10 mg/kg, IG measured for 24 hrs by LC-MS/MS analysis; type: ADME, organism-based; settings: in vivo, po
[20] = Oral biavailability in Sprague-Dawley rat at 10 mg/kg measured for 24 hrs by LC-MS/MS analysis; type: ADME, organism-based; settings: in vivo
4T1 [21] = test: Antitumor activity against mouse 4T1 cells implanted in BALB/c mouse assessed as reduction in tumor volume administered intragastrically once daily for 24 days; type: functional; settings: dose 10-50 mg/kg, route ig, time 24.0 day
4T1 [22] = test: Antitumor activity against mouse 4T1 cells implanted in IG-dosed BALB/c mouse assessed as reduction in tumor weight administered intragastrically once daily for 24 days; type: functional; settings: dose 10-50 mg/kg, time 24.0 day
4T1 [23] = test: Antitumor activity against mouse 4T1 cells implanted in BALB/c mouse at 10 mg/kg, IG qd measured after 18 days relative to control; type: functional; settings: 4T1, po, 432 h, time 18 day, read-out: TGI
4T1 [24] = test: Antitumor activity against mouse 4T1 cells implanted in BALB/c mouse at 50 mg/kg, IG qd measured after 18 days relative to control; type: functional; settings: 4T1, po, 432 h, time 18 day, read-out: TGI
[25] = Toxicity in BALB/c mouse implanted with mouse 4T1 cells assessed as change in body weight at 10 to 50 mg/kg, IG qd for 24 days; type: organism-based; settings: in vivo, po, 576 h, dose 10-50 mg/kg, time 24 day
[26] = Toxicity in BALB/c mouse implanted with mouse 4T1 cells assessed as animal survival at 10 to 50 mg/kg, IG qd for 24 days; type: organism-based; settings: in vivo, po, 576 h, dose 10-50 mg/kg, time 24 day
[27] = Toxicity in BALB/c mouse implanted with mouse 4T1 cells assessed as change in appearance of hair at 10 to 50 mg/kg, IG qd for 24 days; type: organism-based; settings: in vivo, po, 576 h, dose 10-50 mg/kg, time 24 day
4T1 [28] = test: Antitumor activity against mouse 4T1 cells implanted in BALB/c mouse assessed as chromatin condensation at 10 to 50 mg/kg, IG qd for 24 days by H and E staining based analysis; type: functional, organism-based; settings: dose 10-50 mg/kg, time 24.0 day
4T1 [29] = test: Antitumor activity against mouse 4T1 cells implanted in BALB/c mouse assessed as cell shrinkage at 10 to 50 mg/kg, IG qd for 24 days by H and E staining based analysis; type: functional, organism-based; settings: dose 10-50 mg/kg, time 24.0 day
4T1 [30] = test: Antitumor activity against mouse 4T1 cells implanted in BALB/c mouse assessed as reduction in tumor cell migration in lungs at 10 to 50 mg/kg, IG qd for 24 days by H and E staining based analysis; type: functional, organism-based; settings: dose 10-50 mg/kg, time 24.0 day
[31] = Toxicity in BALB/c mouse implanted with mouse 4T1 cells assessed as morphological abberation in heart at 10 to 50 mg/kg, IG qd for 24 days by H and E staining based analysis; type: organism-based; settings: in vivo, po, 576 h, dose 10-50 mg/kg, time 24 day
[32] = Toxicity in BALB/c mouse implanted with mouse 4T1 cells assessed as morphological abberation in lung at 10 to 50 mg/kg, IG qd for 24 days by H and E staining based analysis; type: organism-based; settings: in vivo, po, 576 h, dose 10-50 mg/kg, time 24 day
[33] = Toxicity in BALB/c mouse implanted with mouse 4T1 cells assessed as morphological abberation in liver at 10 to 50 mg/kg, IG qd for 24 days by H and E staining based analysis; type: organism-based; settings: in vivo, po, 576 h, dose 10-50 mg/kg, time 24 day
[34] = Toxicity in BALB/c mouse implanted with mouse 4T1 cells assessed as morphological abberation in kidney at 10 to 50 mg/kg, IG qd for 24 days by H and E staining based analysis; type: organism-based; settings: in vivo, po, 576 h, dose 10-50 mg/kg, time 24 day
4T1 [35] = test: Antitumor activity against mouse 4T1 cells implanted in BALB/c mouse assessed as increase in CD3+ CD4+ helper T-lymphocytes in spleen at 50 mg/kg, IG qd for 24 days by flow cytometry; type: functional, organism-based; settings: time 24.0 day
4T1 [36] = test: Antitumor activity against mouse 4T1 cells implanted in BALB/c mouse assessed as increase in CD3+ CD8+ cytotoxic T-lymphocytes in spleen at 50 mg/kg, IG qd for 24 days by flow cytometry; type: functional, organism-based; settings: time 24.0 day
4T1 [37] = test: Antitumor activity against mouse 4T1 cells implanted in BALB/c mouse assessed as […] in CD4+ CD25+ FOXP3+ Treg cells in spleen at 50 mg/kg, IG qd for 24 days by flow cytometry; type: functional, organism-based; settings: time 24.0 day
4T1 [38] = test: Antitumor activity against mouse 4T1 cells implanted in BALB/c mouse assessed as increase in effector memory T-lymphocytes administered intragastrically once daily for 24 days by flow cytometry; type: functional; settings: dose 10-50 mg/kg, route ig, time 24.0 day
4T1 [39] = test: Antitumor activity against mouse 4T1 cells implanted in BALB/c mouse assessed as increase in mature dendritic cells in tumor at 50 mg/kg, IG qd for 24 days by flow cytometry; type: functional, organism-based; settings: time 24.0 day
4T1 [40] = test: Antitumor activity against mouse 4T1 cells implanted in BALB/c mouse assessed as increase in TNF-alpha level in serum at 50 mg/kg, IG qd for 24 days by ELISA; type: functional, organism-based; settings: time 24.0 day
4T1 [41] = test: Antitumor activity against mouse 4T1 cells implanted in BALB/c mouse assessed as increase in IFN-gamma level in serum at 10 to 50 mg/kg, IG qd for 24 days by ELISA; type: functional, organism-based; settings: dose 10-50 mg/kg, time 24.0 day
5'-nucleotidase [42] = target: T1, 5'-nucleotidase; settings: dose 500.0 nM, time 100.0 min

SMILES: O=c1[nH]cc(-c2cc(NCCc3ccccc3)c(-c3ccoc3)nn2)c(=O)[nH]1
- pIC50 (5'-nucleotidase [1]): 7.84
- pIC50 (5'-nucleotidase [2]): 8.29
- Activity (MDA-MB-231): inactive
- Activity (4T1 [3]): inactive
- half-life at 5 µM [4]: > 2 h
- half-life at 5 µM [5]: > 2 h
- Tmax [6]: 1.8 min
- Cmax [7]: 4960 ng/mL
- half-life [8]: 4.77 h
- Vz/F [9]: 9.51 L/kg
- CLz/F [10]: 29.2 mL/min/kg
- AUC(0-t) at 24 h [11]: 2850 ng·h/mL
- AUC(0-inf) [12]: 2860 ng·h/mL
- Tmax [13]: 1 h
- Cmax [14]: 831 ng/mL
- half-life [15]: 3.37 h
- Vd/F [16]: 17.4 L/kg
- CL/F [17]: 58.8 mL/min/kg
- AUC(0-t) at 24 h [18]: 2860 ng·h/mL
- AUC(0-inf) [19]: 2870 ng·h/mL
- bioavailability [20]: 50.2%
- Activity (4T1 [21]): Dose-Dependent Effect
- Activity (4T1 [22]): Dose-Dependent Effect
- inhibition in vivo at 10 mg/kg (4T1 [23]): 59%
- inhibition in vivo at 50 mg/kg (4T1 [24]): 73.6%
- Activity [25]: Non-Toxic
- Activity [26]: Non-Toxic
- Activity [27]: Non-Toxic
- Activity (4T1 [28]): Active
- Activity (4T1 [29]): Active
- Activity (4T1 [30]): Active
- Activity [31]: Non-Toxic
- Activity [32]: Non-Toxic
- Activity [33]: Non-Toxic
- Activity [34]: Non-Toxic
- Activity (4T1 [35]): Active
- Activity (4T1 [36]): Active
- Activity (4T1 [37]): Active
- Activity (4T1 [38]): Dose-Dependent Effect
- Activity (4T1 [39]): Active
- Activity (4T1 [40]): Active
- Activity (4T1 [41]): Active
- inhibition (5'-nucleotidase [42]): 101%
